{"source": "paper PMC8062851", "about": "“2-Methoxyestradiol and its derivatives inhibit store-operated Ca^2+ entry in T cells: Identification of a new and potent inhibitor” (Biochimica et Biophysica Acta. Molecular Cell Research, 2021)", "key": {"[1]": {"test_system": "Mn2+ entry into Jurkat T cells", "assay": "Mn2+ quenching of Fura2 after store depletion in Jurkat T cells", "assay_type": "cell-based, human", "conditions": "store depletion by thapsigargin, 10 μM", "procedure": "Mn^2+ quenching of Fura2 was used to analyze influx of divalent cations into Jurkat T cells. Like for Ca^2+ measurements, 10^6 loaded Jurkat T-lymphocytes were pelleted and Ca^2+ buffer was exchanged for nominal Ca^2+ free buffer (see above). Instead of Ca^2+, Mn^2+ was added 1220 s after the start of the measurement. To investigate Mn^2+ quenching independently of any effects of Ca^2+, Fura2 was excited at its isosbestic point, which was experimentally determined to be 357 nm. The emission wavelength was set to 495 nm. In contrast to the Ca^2+ measurement experiments, these measurements were not calibrated.\nFor quantitative analysis, the velocity of quenching was calculated as the initial slope. After Mn^2+ addition, there was a very fast drop in Fura2 fluorescence in all experiments. This drop lasted for about 10 s and was probably due to quenching of extracellular Fura2. […]\ny0 is the fluorescence at the start of the decay, P is the theoretical fluorescence at the end of the decay at infinite times, K is the rate constant, and x is the time. […]\nThe fluorescence before Mn^2+ addition was fitted to a straight line using the following equation:(4) y’=m·x+c\nm is the slope, x is the time and c is the y-intercept. […] So the initial slope (si) after Mn^2+ addition was calculated using the following equation:(5) si=(y0–P)*(-K)*e(-K*1230s)–m"}, "SERCA pumps": {"test_system": "SERCA pumps", "assay": "SERCA activity (ATP-induced Ca2+ reuptake) in permeabilized Jurkat T cells", "assay_type": "cell-based, human", "procedure": "3 ∗ 10^7 Jurkat T-lymphocytes per measurement were centrifuged at 450 ×g for 5 min at room temperature. The pellet was rinsed twice, each time using 10 ml permeabilization buffer 1 (120 mM KCl, 10 mM NaCl, 1.2 mM MgCl2, 0.533 mM CaCl2, 1 mM EGTA and 10 mM HEPES, pH 7.2 (KOH), sterile filtered). Subsequently, the pellet was resuspended in 2 ml permeabilization buffer 1 containing 80 μg/ml saponin (Fluka) and the cells were incubated for 10 min at 37 °C. Subsequently, the cells were centrifuged at 450 ×g for 5 min at room temperature and the cell pellet was washed once in 10 ml permeabilization buffer 2 (120 mM KCl, 10 mM NaCl, 1.2 mM MgCl2 and 10 mM HEPES, pH 7.2 (KOH), sterile filtered). Finally, the cells were taken up in 1 ml permeabilization buffer 2, placed into a cuvette and measured at the fluorescence spectrophotometer. Before the start of the measurement, 0.5 μl of 1 mM Fura2 free acid (dissolved in pure water, final concentration: 0.5 μM), 5 μl of 5 mg/ml creatinkinase (dissolved in permeabilization buffer 2, final concentration: 25 μg/ml, 20 U/ml, Roche) and 10 μl of 2 M creatin phosphate (dissolved in permeabilization buffer 2, final concentration: 20 mM, Calbiochem) were added. Fura2 was used to measure the Ca^2+ concentration and creatinkinase and creatin phosphate were used as ATP-regenerating system. The measurement was controlled by FL Solutions (Version 4.1, Hitachi High-Technologies Corporation). Fura2 was alternatively excited every 2 s at 340 ± 5 nm and 380 ± 5 nm, each 400 ms apart. Fluorescence intensity was measured at an emission wavelength of 495 ± 5 nm for both excitation wavelengths. […] Ca^2+ concentrations were calculated according to Grynkiewicz et al. as described earlier in Section 2.4.\nAs a quantitative read-out for inhibition of IP3 receptors, the peak [Ca^2+] after IP3 addition was subtracted from the mean [Ca^2+] between 25 and 75 s before IP3 addition (dPeak). […] The rate constant K of the fitted data was used as a quantitative read-out for SERCA pump activity and its inhibition."}, "ORAI1": {"target": "T1, ORAI1 (Homo sapiens, UniProt Q96D31)", "T1 construct": "host or cells: Jurkat T-lymphocytes (electroporation)", "T1 sequence (Q96D31 whole entry)": "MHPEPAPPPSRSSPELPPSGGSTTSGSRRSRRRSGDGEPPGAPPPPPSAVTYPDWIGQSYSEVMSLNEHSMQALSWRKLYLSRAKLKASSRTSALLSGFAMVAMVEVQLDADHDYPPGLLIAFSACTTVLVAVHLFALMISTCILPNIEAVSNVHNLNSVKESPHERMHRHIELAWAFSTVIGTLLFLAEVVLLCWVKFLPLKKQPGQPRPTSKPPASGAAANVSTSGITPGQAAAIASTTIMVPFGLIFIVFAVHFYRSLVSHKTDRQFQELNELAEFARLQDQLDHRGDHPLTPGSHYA", "assay": "Live cell Ca2+ imaging of G-GECO1.2-ORAI1 transfected Jurkat T cells", "assay_type": "cell-based", "conditions": "10 μM", "procedure": "12.5 ∗ 10^6 Jurkat T–lymphocytes were pelleted at 400 to 450 ×g for 5 min at room temperature and pellets were dissolved in 500 μl RPMI 1640 medium (Gibco) without phenol red containing L-glutamine, supplemented with 7.5% (v/v) NCS. 30 μg plasmid-DNA (G-GECO1.2-ORAI1) was transferred into a 4 mm electroporation cuvette (Biozym, Austria) and the Jurkat T-lymphocytes were added. G-GECO1.2-ORAI1 was a gift from Michael Cahalan, USA (Addgene plasmid # 73562). After an incubation of 5 min at 37 °C, cells were electroporated with 960 μF and 240 V (τ: […]). […]\n17 to 22 h after electroporation, 5 ∗ 10^4 cells were pelleted at 400–450 ×g for 5 min at room temperature and cell pellets were dissolved in 50 μl nominal Ca^2+ free buffer. […] The fluorophore was excited at 488 nm every 2 s for 30 min and fluorescence was measured at 520 nm using Volocity (Version 6.3, Perkin Elmer).\nUsing ImageJ (Version 1.51 k, National Institutes of Health, USA) the pictures were analyzed for mean fluorescence in the outer ring of Jurkat T-lymphocytes employing ring-shaped regions of interest (ROIs). […] The mean background fluorescence values were subtracted from the signal in every image. For quantitative analysis, fluorescence intensities were normalized to the first fluorescence intensity (F/F0)."}}, "note": "“Also recorded” adds a separate entry of the source.", "data": [{"smiles": "CCc1cc2c(cc1OS(N)(=O)=O)CC[C@@H]1[C@@H]2CC[C@]2(C)[C@@H](CC#N)CC[C@@H]12", "note": "[STX564, 2-ethyl-3-sulfamoyloxy-17β-cyanomethylestra-1,3,5(10)-triene]", "values": [{"measurement": "antagonism of Mn2+ entry (Mn2+ quenching of Fura2)", "setting": "[1]", "value": "almost fully"}, {"measurement": "effect on SERCA activity (initial slope of [Ca2+] upon ATP addition)", "setting": "SERCA pumps", "value": "Neither STX564, Synta66 nor vehicle DMSO affected ATP-induced Ca^2+ reuptake by SERCA pumps; also recorded: neither STX564 nor Synta66 showed any effect"}, {"measurement": "SOCE by ORAI1 (G-GECO1.2-ORAI1 fluorescence)", "setting": "ORAI1", "value": "almost completely diminished"}]}]}
